Each structure is given as a SMILES string. Where a name gives a salt, the structure may show the parent alone.

For the first series, the target named is SLC-1 (UniProt Q99705). Briefly: Determination of antagonist activity using GTPγS binding assay. In kind it is biochemical, human, rat. The following applies: inhibition of MCH-stimulated [35S]-GTPγS binding, SLC-1 expressing CHO cell membrane fractions, 25° C., 1 hour. The protocol:
Membrane fraction was prepared by the following method, using the human SLC-1 expressing CHO cell clone 57 obtained in Reference Example 1-10, and the rat SLC-1 expressing CHO cell clone 44 obtained in Reference Example 1-4.
The human and rat SLC-1 expressing CHO cells (1×10^8) were scraped in buffer saline phosphate (pH 7.4) to which 5 mM EDTA (ethylenediaminetetraacetic acid) had been added, and centrifuged. 10 ml of homogenized buffer (10 mM NaHCO3, 5 mM EDTA, pH 7.5) was added to the cell pellets, and they were homogenized using a Polytron homogenizer. […]
After this reaction mixture was allowed to react at 25° C. for 1 hour under stirring, it was filtered under vacuum using a glass filter (GF-C), then the filter was washed 3 times with 300 μl of washing solution (50 mM Tris-HCl buffer solution pH 7.5). 50 ml of liquid scintillator was added to the glass filter, and residual radioactivity was determined using a liquid scintillation counter.
The IC50 value of the compound was calculated from the binding inhibition rate (%), based on the definition that the binding inhibition rate (%)=(radioactivity when compound and MCH were added−radioactivity when DMSO solution was added)/(radioactivity when MCH was added−radioactivity when DMSO solution was added)×100.
Usually IC50 stands for the point on the concentration scale where inhibition reaches its midpoint. `CN(C)CCCc1ccc2c(c1)CCCN2C(=O)c1ccc(-c2ccccc2)cc1` [Example 1, 3-[1-([1,1′-Biphenyl]-4-ylcarbonyl)-1,2,3,4-tetrahydro-6-quinolinyl]-N,N-dimethyl-1-propanamine] had an IC50 of 0.3 µM.
Same read-out and setting: the same measure for `CN(C)C/C=C/c1ccc2c(c1)CCCN2C(=O)c1ccc(-c2ccc(Cl)cc2)cc1` [Example 5, (E)-3-[1-[(4′-Chloro[1,1-biphenyl]-4-yl)carbonyl]-1,2,3,4-tetrahydro-6-quinolinyl]-N,N-dimethyl-2-propen-1-amine]: 0.02 µM.

System in the next series: not given
Experiment: not given
Conditions: not given
As a reminder, the melting point is the temperature, or range, at which the solid turns liquid. On to `CCCN(CCC)CCc1ccc2c(c1)N(Cc1cccc3ccccc13)CCO2.Cl`, for which the melting point was in the range of 177 to 178 °C.
Regarding `CN1CCc2ccc(C(=O)CCCN3CCC(c4ccc(Cl)cc4)CC3)cc2CC1` (as salt: HCl) (hydrate or solvate) [Example 35, 4-[4-(4-Chlorophenyl)-1-piperidinyl]-1-(3-methyl-2,3,4,5-tetrahydro-1H-3-benzazepin-7-yl)-1-butanone], the melting point is 248 to 252 °C (dec.).
The same measure, in the same setting: under `O=C(CCCN1CCC(c2ccc(Cl)cc2)CC1)c1ccc2c(c1)CCNCC2` (as salt: HCl) [Example 34, 4-[4-(4-Chlorophenyl)-1-piperidinyl]-1(2,3,4,5-tetrahydro-1H-3-benzazepin-7-yl)-1-butanone] stands 243 to 247 °C (dec.); under `CN(C)C/C=C/c1ccc2c(c1)N(C(=O)c1ccc(-c3ccccc3)cc1)CCCC2` (as salt: hydrochloride) [Example 2, (E)-3-[1-([1,1′-Biphenyl]-4-ylcarbonyl)-2,3,4,5-tetrahydro-1H-1-benzazepin-8-yl]-N,N-dimethyl-2-propen-1-amine hydrochloride], 112 to 113 °C; under `CN(C)CCCc1ccc2c(c1)N(C(=O)c1ccc(-c3ccccc3)cc1)CCCC2` (as salt: hydrochloride) [Example 3, 3-[1-([1,1′-Biphenyl]-4-ylcarbonyl)-2,3,4,5-tetrahydro-1H-1-benzazepin-8-yl]-N,N-dimethyl-1-propanamine hydrochloride], 84 to 86 °C.
The same measure, in the same setting: the same measure for `CCCN(CCC)CCc1ccc2c(c1)N(S(=O)(=O)c1ccc(Cl)cc1)CCO2` (as salt: succinate) [Example 137, 4-(4-Chlorobenzenesulfonyl)-3,4-dihydro-6-[2-(N,N-dipropylamino)ethyl]-2H-1,4-benzoxazine succinate]: 130 to 133 °C.
Molecule `CN(C)CCCc1ccc2c(c1)CCCN2C(=O)c1ccc(-c2ccccc2)cc1` [Example 1, 3-[1-([1,1′-Biphenyl]-4-ylcarbonyl)-1,2,3,4-tetrahydro-6-quinolinyl]-N,N-dimethyl-1-propanamine] gave a melting point of 100 to 101 °C.
Same read-out and setting: under `CN(C)C/C=C/c1ccc2c(c1)CCCN2C(=O)c1ccc(-c2ccc(Cl)cc2)cc1` [Example 5, (E)-3-[1-[(4′-Chloro[1,1-biphenyl]-4-yl)carbonyl]-1,2,3,4-tetrahydro-6-quinolinyl]-N,N-dimethyl-2-propen-1-amine] stands 162 to 164 °C.
On the same count and under the same terms, under `O=C(c1ccc(-c2ccc(Cl)cc2)cc1)N1CCCc2cc(/C=C/CN3CCCCC3)ccc21` [Example 6, 1-[(4′-Chloro[1,1-biphenyl]-4-yl)carbonyl]-6-[(E)-3-piperidino-1-propenyl]-1,2,3,4-tetrahydroquinoline] stands 141 to 143 °C.
Still for that read-out and setting: under `CN(C)C/C=C/c1ccc2c(c1)CCN2C(=O)c1ccc(-c2ccccc2)cc1` [Example 7, (E)-3-[1-[([1,1′-Biphenyl]-4-yl)carbonyl]-2,3-dihydro-1H-indol-5-yl]-N,N-dimethyl-2-propen-1-amine] stands 174 to 176 °C; under `COc1ccc(COc2ccc(C(=O)N3CCc4cc(/C=C/CN(C)C)ccc43)cc2)cc1` [Example 9, (E)-3-[1-[4-[(4-Methoxybenzyl)oxy]benzoyl]-2,3-dihydro-1H-indol-5-yl]-N,N-dimethyl-2-propen-1-amine], 164 to 166 °C; under `O=C(CCC(=O)N1CCC(c2ccc(Cl)cc2)CC1)c1ccc2c(c1)CCN(C(=O)C(F)(F)F)CC2` [Example 14, 4-[4-(4-Chlorophenyl)-1-piperidinyl]-4-oxo-1-[3-(trifluoroacetyl)-2,3,4,5-tetrahydro-1H-3-benzazepin-7-yl]-1-butanone], 131 to 132 °C.
`O=C(CCC(=O)N1CCC(c2ccc(Cl)cc2)CC1)c1ccc2c(c1)CCNCC2` [Example 15, 4-[4-(4-Chlorophenyl)-1-piperidinyl]-4-oxo-1-(2,3,4,5-tetrahydro-1H-3-benzazepin-7-yl)-1-butanone] had a melting point of 148 to 149 °C.
Take `CN1CCc2ccc(C(=O)CCC(=O)N3CCC(c4ccc(Cl)cc4)CC3)cc2CC1` [Example 16, 4-[4-(4-Chlorophenyl)-1-piperidinyl]-4-oxo-1-(3-methyl-2,3,4,5-tetrahydro-1H-3-benzazepin-7-yl)-1-butanone]: the melting point fell in the range of 143 to 145 °C.
Same read-out and setting: under `O=C(CCC(=O)N1CCC(c2ccccc2)CC1)c1ccc2c(c1)CCN(C(=O)C(F)(F)F)CC2` [Example 31, 4-Oxo-4-(phenyl-1-piperidinyl)-1-[3-(trifluoroacetyl)-2,3,4,5-tetrahydro-1H-3-benzazepin-7-yl]-1-butanone] stands 132 to 133 °C; under `O=C(CCC(=O)N1CCC(c2ccccc2)CC1)c1ccc2c(c1)CCNCC2` [Example 32, 4-Oxo-4-(phenyl-1-piperidinyl)-1-(2,3,4,5-tetrahydro-1H-3-benzazepin-7-yl)-1-butanone], 114 °C.
In the case of `CCCN(CCC)C(=O)Cc1ccc2c(c1)NC(=O)CO2` [Example 133, N,N-Dipropyl-(3,4-dihydro-2H-1,4-benzoxazine-3-oxo-6-yl) acetamide], the melting point is 121 to 122 °C.
Consider `O=C(CCC(=O)N1CCC(c2ccc(Cl)cc2)CC1)c1ccc2c(c1)CCN(CC1CCCO1)CC2` (stereo not shown) [Example 194, 4-[4-(4-Chlorophenyl)-1-piperidinyl]-4-oxo-1-[3-(tetrahydro-2-furanylmethyl)-2,3,4,5-tetrahydro-1H-3-benzazepin-7-yl]-1-butanone], for which the melting point lay within 123 to 125 °C.
On the same count and under the same terms, under `O=C(CCC(=O)N1CCC(c2ccc(Cl)cc2)CC1)c1ccc2c(c1)CCN(C1CCCCC1)CC2` [Example 195, 4-[4-(4-Chlorophenyl)-1-piperidinyl]-1-(3-cyclohexyl-2,3,4,5-tetrahydro-1H-3-benzazepin-7-yl)-4-oxo-1-butanone] stands 128 to 130 °C; under `O=C(CCCC(=O)N1CCC(c2ccc(Cl)cc2)CC1)c1ccc2c(c1)CCNCC2` [Example 205, 5-[4-(4-Chlorophenyl)-1-piperidinyl]-5-oxo-1-(2,3,4,5-tetrahydro-1H-3-benzazepin-7-yl)-1-pentanone], 112 to 113 °C.
